Results on three compounds are retold here after ChEMBL document CHEMBL1152560, “Substituted 2-arylbenzothiazoles as kinase inhibitors: hit-to-lead optimization” (Bioorg Med Chem, 2009).

Each structure is given as a SMILES string.

The target of experiment [1] is Vascular endothelial growth factor receptor 3 (Homo sapiens, UniProt P35916). Nature of the experiment: Residual activity of VEGFR3 at 1 uM by microplate scintillation counting.
The target in experiment [2] is Dual specificity tyrosine-phosphorylation-regulated kinase 1A (Homo sapiens) (UniProt Q13627). As to the kind of experiment: Residual activity of DYRK1A at 10 uM by microplate scintillation counting.
Experiment [3] concerns the target T1, Ephrin type-B receptor 1 (Homo sapiens) (UniProt P54762).
T1 sequence (whole entry): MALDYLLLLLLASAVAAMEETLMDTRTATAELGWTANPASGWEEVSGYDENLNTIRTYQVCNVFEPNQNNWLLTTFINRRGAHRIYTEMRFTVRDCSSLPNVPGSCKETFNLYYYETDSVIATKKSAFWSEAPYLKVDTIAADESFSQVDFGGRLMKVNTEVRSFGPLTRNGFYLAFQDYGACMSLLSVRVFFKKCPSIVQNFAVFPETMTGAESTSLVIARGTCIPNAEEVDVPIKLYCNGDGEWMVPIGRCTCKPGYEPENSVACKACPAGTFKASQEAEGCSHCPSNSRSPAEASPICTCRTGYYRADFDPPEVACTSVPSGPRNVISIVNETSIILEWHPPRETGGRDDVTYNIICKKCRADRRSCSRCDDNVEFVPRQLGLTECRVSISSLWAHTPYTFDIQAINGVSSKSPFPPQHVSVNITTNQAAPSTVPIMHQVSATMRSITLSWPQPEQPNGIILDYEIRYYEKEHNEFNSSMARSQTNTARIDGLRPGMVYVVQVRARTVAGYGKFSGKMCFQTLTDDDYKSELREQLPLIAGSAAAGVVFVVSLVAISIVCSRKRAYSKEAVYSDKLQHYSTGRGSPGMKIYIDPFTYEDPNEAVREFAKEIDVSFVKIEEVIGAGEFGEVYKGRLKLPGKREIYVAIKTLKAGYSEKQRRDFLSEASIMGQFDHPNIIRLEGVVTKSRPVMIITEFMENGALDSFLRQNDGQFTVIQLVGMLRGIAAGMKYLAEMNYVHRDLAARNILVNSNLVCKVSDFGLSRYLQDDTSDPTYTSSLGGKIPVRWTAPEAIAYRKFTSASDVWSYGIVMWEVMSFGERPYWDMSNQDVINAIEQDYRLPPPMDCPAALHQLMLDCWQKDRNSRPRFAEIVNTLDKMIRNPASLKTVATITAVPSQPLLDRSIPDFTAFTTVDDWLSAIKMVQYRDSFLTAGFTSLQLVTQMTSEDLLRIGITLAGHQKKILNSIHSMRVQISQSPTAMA
As to the kind of experiment: Residual activity of EPHB1 at 10 uM by microplate scintillation counting.

Experiment [4] concerns the target Mitogen-activated protein kinase kinase kinase kinase 4 (Homo sapiens) (UniProt O95819). As to the kind of experiment: Residual activity of MAP4K4 at 10 uM by microplate scintillation counting.
For experiment [5], the target named is T2, MAP kinase-activated protein kinase 5 (Homo sapiens) (UniProt Q8IW41).
T2 sequence (whole entry): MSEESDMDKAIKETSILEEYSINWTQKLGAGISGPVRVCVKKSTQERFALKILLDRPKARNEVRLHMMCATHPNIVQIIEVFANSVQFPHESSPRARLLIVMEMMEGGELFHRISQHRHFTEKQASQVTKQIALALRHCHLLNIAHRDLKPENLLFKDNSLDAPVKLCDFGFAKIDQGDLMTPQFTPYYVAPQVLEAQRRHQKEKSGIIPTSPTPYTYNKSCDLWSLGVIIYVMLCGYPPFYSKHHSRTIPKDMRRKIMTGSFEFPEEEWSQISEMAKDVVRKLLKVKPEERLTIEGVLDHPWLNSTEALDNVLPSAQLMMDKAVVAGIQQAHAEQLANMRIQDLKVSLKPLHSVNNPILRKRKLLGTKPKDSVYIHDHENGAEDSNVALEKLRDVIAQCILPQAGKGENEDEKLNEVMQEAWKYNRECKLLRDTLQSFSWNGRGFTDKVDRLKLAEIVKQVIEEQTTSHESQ
Nature of the experiment: Residual activity of MAPKAPK5 at 10 uM by microplate scintillation counting.

Experiment [6] addresses T3, cGMP-dependent protein kinase 1 (Homo sapiens) (UniProt Q13976).
T3 sequence (whole entry): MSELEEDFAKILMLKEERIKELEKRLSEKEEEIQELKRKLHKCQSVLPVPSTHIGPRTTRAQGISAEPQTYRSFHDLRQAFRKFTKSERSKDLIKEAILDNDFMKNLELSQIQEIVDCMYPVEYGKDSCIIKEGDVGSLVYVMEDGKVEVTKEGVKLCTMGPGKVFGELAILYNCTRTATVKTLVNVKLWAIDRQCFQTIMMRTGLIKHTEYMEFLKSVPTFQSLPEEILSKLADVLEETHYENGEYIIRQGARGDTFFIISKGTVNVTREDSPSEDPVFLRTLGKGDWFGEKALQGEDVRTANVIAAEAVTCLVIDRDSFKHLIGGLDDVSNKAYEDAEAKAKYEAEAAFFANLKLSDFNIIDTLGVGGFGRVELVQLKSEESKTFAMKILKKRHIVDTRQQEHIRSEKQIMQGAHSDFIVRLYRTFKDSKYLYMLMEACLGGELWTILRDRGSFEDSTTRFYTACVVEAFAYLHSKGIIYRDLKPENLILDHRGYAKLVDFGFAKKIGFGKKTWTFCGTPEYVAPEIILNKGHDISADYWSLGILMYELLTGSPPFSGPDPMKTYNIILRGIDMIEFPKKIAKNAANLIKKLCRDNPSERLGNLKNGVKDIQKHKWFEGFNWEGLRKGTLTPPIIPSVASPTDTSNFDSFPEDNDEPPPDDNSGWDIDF
As to the kind of experiment: Residual activity of PRKG1 at 10 uM by microplate scintillation counting.

The subject of experiment [7] is RAF proto-oncogene serine/threonine-protein kinase (Homo sapiens), P04049 [Y340D,Y341D]. Nature of the experiment: Residual activity of RAF1 Y340D/Y341D mutant at 0.1 uM by microplate scintillation counting.
The target in experiment [8] is T4, TGF-beta receptor type-1 (Homo sapiens) (UniProt P36897).
T4 sequence (whole entry): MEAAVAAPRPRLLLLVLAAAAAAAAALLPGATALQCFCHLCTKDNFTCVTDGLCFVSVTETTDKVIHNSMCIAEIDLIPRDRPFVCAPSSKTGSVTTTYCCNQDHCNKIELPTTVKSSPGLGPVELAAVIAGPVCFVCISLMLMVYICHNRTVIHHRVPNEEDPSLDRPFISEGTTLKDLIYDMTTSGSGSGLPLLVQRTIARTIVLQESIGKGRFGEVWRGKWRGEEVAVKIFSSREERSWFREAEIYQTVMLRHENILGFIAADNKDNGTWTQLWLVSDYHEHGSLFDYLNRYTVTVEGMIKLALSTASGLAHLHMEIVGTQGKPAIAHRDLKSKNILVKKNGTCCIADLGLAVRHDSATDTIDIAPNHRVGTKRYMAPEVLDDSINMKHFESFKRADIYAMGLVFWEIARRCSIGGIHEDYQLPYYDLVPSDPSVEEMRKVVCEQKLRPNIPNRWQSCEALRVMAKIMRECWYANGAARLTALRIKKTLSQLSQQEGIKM
Nature of the experiment: Residual activity of TGFB-R1 at 0.1 uM by microplate scintillation counting.

Vascular endothelial growth factor receptor 3, sequence (P35916 whole entry): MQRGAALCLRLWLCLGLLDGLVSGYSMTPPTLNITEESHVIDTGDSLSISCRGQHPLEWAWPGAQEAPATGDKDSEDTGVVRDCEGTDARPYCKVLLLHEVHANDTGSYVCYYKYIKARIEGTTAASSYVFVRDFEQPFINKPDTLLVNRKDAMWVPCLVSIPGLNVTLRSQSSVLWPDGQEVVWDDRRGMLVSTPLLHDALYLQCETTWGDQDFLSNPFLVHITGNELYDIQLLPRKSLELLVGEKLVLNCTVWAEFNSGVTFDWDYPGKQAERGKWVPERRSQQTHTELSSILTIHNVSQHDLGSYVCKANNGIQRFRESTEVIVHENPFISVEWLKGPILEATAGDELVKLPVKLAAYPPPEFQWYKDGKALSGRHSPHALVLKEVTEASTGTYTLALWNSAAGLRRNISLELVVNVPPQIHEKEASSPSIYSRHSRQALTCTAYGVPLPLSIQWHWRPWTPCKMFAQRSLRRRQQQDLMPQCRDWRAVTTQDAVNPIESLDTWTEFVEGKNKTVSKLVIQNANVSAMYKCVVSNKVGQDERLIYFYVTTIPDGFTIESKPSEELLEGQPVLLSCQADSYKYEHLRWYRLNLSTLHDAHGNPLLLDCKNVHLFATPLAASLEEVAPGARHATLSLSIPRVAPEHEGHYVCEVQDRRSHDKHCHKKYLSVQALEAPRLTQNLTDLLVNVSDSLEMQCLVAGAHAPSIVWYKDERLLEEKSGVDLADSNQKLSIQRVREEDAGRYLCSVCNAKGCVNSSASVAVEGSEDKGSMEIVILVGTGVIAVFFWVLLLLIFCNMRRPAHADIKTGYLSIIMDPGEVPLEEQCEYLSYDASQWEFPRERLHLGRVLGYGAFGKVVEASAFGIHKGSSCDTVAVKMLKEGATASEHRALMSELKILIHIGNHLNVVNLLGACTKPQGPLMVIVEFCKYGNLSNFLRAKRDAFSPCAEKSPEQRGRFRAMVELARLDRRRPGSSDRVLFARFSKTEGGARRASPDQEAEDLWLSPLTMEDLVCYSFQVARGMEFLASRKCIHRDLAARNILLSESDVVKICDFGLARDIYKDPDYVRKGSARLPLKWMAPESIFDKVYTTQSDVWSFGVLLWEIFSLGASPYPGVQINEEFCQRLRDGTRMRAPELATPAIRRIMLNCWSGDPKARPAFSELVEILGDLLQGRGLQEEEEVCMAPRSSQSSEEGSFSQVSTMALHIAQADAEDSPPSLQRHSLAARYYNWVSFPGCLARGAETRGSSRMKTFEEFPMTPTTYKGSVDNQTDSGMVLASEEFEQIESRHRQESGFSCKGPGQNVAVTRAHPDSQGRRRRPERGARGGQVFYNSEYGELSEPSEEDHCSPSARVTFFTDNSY
Mitogen-activated protein kinase kinase kinase kinase 4 (Homo sapiens), sequence (O95819 2-1239 limits assumed): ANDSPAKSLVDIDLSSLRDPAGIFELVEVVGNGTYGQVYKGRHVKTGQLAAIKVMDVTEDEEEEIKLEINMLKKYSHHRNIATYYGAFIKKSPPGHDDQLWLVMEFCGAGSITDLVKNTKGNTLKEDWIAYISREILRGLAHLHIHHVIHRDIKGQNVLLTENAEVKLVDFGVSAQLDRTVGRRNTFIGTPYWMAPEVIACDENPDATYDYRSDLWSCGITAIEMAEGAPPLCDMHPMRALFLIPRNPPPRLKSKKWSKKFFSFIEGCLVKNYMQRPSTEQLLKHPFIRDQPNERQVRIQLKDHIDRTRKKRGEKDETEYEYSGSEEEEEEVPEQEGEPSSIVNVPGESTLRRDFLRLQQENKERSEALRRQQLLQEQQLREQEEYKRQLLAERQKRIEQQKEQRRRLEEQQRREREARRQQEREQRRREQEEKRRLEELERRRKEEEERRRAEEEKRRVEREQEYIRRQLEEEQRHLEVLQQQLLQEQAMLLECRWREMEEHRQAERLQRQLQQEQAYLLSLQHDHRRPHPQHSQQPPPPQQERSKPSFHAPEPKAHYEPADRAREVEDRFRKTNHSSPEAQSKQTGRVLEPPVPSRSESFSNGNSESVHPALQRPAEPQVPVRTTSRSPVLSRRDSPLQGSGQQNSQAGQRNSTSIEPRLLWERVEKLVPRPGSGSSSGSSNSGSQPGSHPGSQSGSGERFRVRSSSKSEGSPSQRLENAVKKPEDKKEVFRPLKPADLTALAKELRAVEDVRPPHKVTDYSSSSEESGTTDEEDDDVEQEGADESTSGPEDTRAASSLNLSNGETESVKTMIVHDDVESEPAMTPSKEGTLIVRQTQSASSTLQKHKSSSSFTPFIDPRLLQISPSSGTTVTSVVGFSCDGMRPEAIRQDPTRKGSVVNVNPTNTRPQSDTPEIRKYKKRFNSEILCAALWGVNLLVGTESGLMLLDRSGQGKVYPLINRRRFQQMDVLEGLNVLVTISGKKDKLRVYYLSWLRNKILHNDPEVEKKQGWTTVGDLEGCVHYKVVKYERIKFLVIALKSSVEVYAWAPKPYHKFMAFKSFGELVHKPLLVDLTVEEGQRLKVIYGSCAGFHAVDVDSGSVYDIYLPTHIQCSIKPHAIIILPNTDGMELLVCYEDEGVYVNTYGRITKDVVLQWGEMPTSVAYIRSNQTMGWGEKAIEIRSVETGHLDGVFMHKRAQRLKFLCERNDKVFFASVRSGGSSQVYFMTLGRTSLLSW

With `COc1cc2c(Oc3ccc(-c4nc5ccccc5s4)cc3)ncnc2cc1OCCCN1CCN(C)CC1`, the residual activity in experiment [1] amounted to 34%; in experiment [2] it was 103%; in experiment [3], 429%; in experiment [4], 101%; in experiment [5], 143%; in experiment [6], 50%. Moreover, the residual activity in experiment [7] was 114%; in experiment [8] it was 102%.
Consider `COc1cc2c(Oc3ccc(-c4nc5ccccc5s4)cc3)ncnc2cc1OCCCN1CCCC1`, for which the residual activity is 32% in experiment [1]; 89% in experiment [2]; 223% in experiment [3]; 76% in experiment [4]; 109% in experiment [5]; 57% in experiment [6]. Besides, the residual activity in experiment [7] is 95%; in experiment [8] it was 90%.
With `COc1cc2c(Oc3ccc(-c4nc5ccccc5s4)cc3F)ncnc2cc1OCCCN1CCN(C)CC1`, the residual activity in experiment [1] came to 30%; in experiment [2], 101%; in experiment [3] it was 124%; in experiment [4], 96%; in experiment [5], 134%; in experiment [6], 38%. In addition, the residual activity in experiment [7] was 100%; in experiment [8] it was 96%.
